Several values for one entry are separate records, joined by “and”; a condition that tells them apart may be missing. Equal entries are not always repeated.
Tests used:
Type in all cases: in vivo, human
[1] = test system: adolescent subjects with ADHD and at least one genetic alteration in an mGluR network gene; assay: PERMP-Math test, Phase Ib trial of NFC-1; conditions: for Change in PERMP / Final PERMP: individual subjects, monohydrate; for Change in PERMP: placebo baseline (week 1) to final (week 5); for Final PERMP: week 5
Excerpt: The Permanent Product Measure of Performance (PERMP)-Math is an individualized mathematics test that can be performed by a patient periodically when on and off medication for ADHD. It is used, for example, to monitor classroom performance in an experimental laboratory setting. In general, the PERMP test comprises 5 pages of 400 problems that subjects are directed to attempt over a 10-minute period. Subjects may be given a pre-test first to determine their mathematical skill level. Subjects are directed to answer as many questions as they can in the 10-minute period and the test is generally scored on a 0-800-point scale based on the number of questions attempted and the number of questions answered correctly within the time limit. Subjects receive a different version of the test at each setting. All efficacy assessments, except actigraphy, were made at study enrollment (“enrollment baseline”) and again, including actigraphy, once-per-week for the placebo week (“week 1” or “placebo baseline”) and at each of the 4 weeks of NFC-1 treatment. These efficacy measures include items 1-18 of the Vanderbilt scale assessing symptoms related to inattentiveness and hyperactivity-impulsiveness as well as additional questions 19-47 of the Vanderbilt scale assessing other behavioral symptoms (conducted by parent), actigraphy for quantitative measurement of activity, Quotient® ADHD test for objective measurement of micro-motion and shifts in attention state, PERMP-Math test, and CGI-I and CGI-S for assessment of global functioning. Prior to receiving the PK assessment dose, subjects returned to the clinic to be administered the PERMP-Math tests, subjected to actigraphy (set to activate at the time of first placebo dose 2 days later), and to be given a general physical examination including vital signs and weight, blood and urine sampling, and a pregnancy test for female subjects. During the 5-week placebo and dose-escalation phases of the study, subjects visited the clinic again at the end of each week to be administered the Quotient® and PERMP-Math tests, subjected to actigraphy, Vanderbilt and BRIEF measurements (conducted by parent), and to be given a general physical examination including vital signs and weight, blood and urine sampling, and a pregnancy test for female subjects. Based on the data in Table 1, the mean change in PERMP score from pre-study baseline to week 5 was negative 3.43. When analyzed based on genetic tier, there were no significant differences from the overall mean change. […] The test was conducted at the time of clinic visits and thus, for each subject, was not necessarily given at the same time post dose or same time of day from one week to the next. The test was also conducted during a clinic visit and not in a classroom setting. Thus, clinic waiting room distractions, for example, could have varied from one visit to the next and were not controlled.

[2] = test system: ADHD subjects with anxiety; assay: Vanderbilt anxiety items 41, 42 and 47, Phase Ib trial of NFC-1; conditions: two subjects with scores of 3 on 2 of the 3 items at enrollment; week 5
Excerpt: (§1) The Vanderbilt Rating Scale is a measure that can be completed by parents or teachers (separate forms, see Vanderbilt Rating Scale Parents and Vanderbilt Rating Scale Teachers). The Vanderbilt scale rates the child's behavior on items such as attention, finishing tasks, hyperactivity, difficulty waiting, and measures of conduct or oppositional defiant disorders—as well as measures of overall school performance and interactions with others. The first 18 items on the Vanderbilt scale correspond to those of the ADHD Rating Scale IV above while the Vanderbilt scale also includes items 19-47 related to other mental disorders including ODD (items 19-26), conduct disorder (items 27-40), anxiety (items 41, 42, and 47), and depression (items 43-46). Each of the behavioral assessment items on the Vanderbilt Scale are rated 0, 1, 2, or 3, with 0=never occurring; 1=occasionally, 2=often, and 3=very often. Thus, the ADHD Rating Scale IV, ADHD Rating Scale V, and items 1-18 of the Vanderbilt Rating Scale are equivalent scales, while additional items on the Vanderbilt Scale assess co-morbid phenotypes and disorders.
Two subjects had maximum scores of 3 on 2 of the 3 Vanderbilt items 41, 42, and 47 that are related to anxiety at enrollment. […] One of those subjects also scored 3 on 3 of the 4 Vanderbilt items related to depression (items 43-46) at enrollment and scored 3 on all 4 items at week 1.

[3] = test system: subjects with ADHD and ODD; assay: Vanderbilt ODD score (items 19-26), Phase Ib trial of NFC-1
Excerpt: as §1
Subjects were identified as ODD from the K-SADS-P V6 performed at screening and Vanderbilt scores for ODD at screening and at week 1(scores of 2 or 3 on at least 4 of the 8 Vanderbilt items that assess ODD, i.e., items 19 to 26). By the end of the dose escalation phase of the trial at week 5, four of the twelve subjects (nos. 108, 117, 125, and 128) no longer met the screening criteria for ODD.

[4] = out of the 13 ODD subjects, week 1 to week 5

## O=C1CC[C@H](C(=O)N2CCCCC2)N1 [NFC-1, fasoracetam monohydrate]
[1]; 22q syndrome Subject 110, Week 2, 50 mg bid
  PERMP: 55
[1]; 22q syndrome Subject 110, Week 3, 100 mg bid
  PERMP: 51
[1]; 22q syndrome Subject 110, Week 4, 200 mg bid
  PERMP: 75
[1]; 22q syndrome Subject 110, Week 5, 400 mg bid
  PERMP: 71
[1]; 22q syndrome Subject 127, Week 2, 50 mg bid
  PERMP: 167
[1]; 22q syndrome Subject 127, Week 3, 100 mg bid
  PERMP: 68
[1]; 22q syndrome Subject 127, Week 4, 200 mg bid
  PERMP: 72
[1]; 22q syndrome Subject 127, Week 5, 400 mg bid
  PERMP: 64
[1]; max dose 100 mg bid
  Change in PERMP: 23 and 0 and 2
  Final PERMP: 101 and 125 and 135
[1]; max dose 200 mg bid
  Change in PERMP: −18 and 19 and 4 and 31 and −70 and 43 and −2 and −24 and −11
  Final PERMP: 103 and 111 and 76 and 160 and 55 and 152 and 71 and 80 and 74
[1]; max dose 400 mg bid
  Change in PERMP: −43 and 26 and −9 and 23 and −11 and 12 and 14 and −12 and 0 and −16 and −4 and −37 and 9 and −28 and −14 and −2 and 15 and −23
  Final PERMP: 87 and 71 (2×) and 88 and 93 and 48 and 68 and 92 and 64 (3×) and 99 and 80 and 34 and 104 and 46 and 75 and 168
[1]; overall
  PERMP results over the course of the study: did not show significant change
[2]
  scores on Vanderbilt anxiety items 41, 42 and 47: scored 3 on all 3 items
[3]; Subject 108, end of week 5, placebo baseline 19
  Vanderbilt ODD score (items 19-26, maximum 24): 7
[3]; Subject 117, week 5, placebo baseline 19
  Vanderbilt ODD score (items 19-26, maximum 24): 8
[3]; Subject 128, week 5, placebo baseline 24
  Vanderbilt ODD score (items 19-26, maximum 24): 8
[3]; Subject 130, week 1 to week 5
  improvement in Vanderbilt ODD score: 3 points
[3]; Subject 130, week 5, out of 24, 24/24 at week 1
  Vanderbilt ODD score: 21
[3]; of 13 ODD subjects, week 1 to week 5
  subjects with improved Vanderbilt ODD scores: 13 subjects
[3]; of the remaining eight ODD subjects, week 1 to week 5
  subjects showing improvements of 2 or more points in Vanderbilt ODD items: four
[3]; of the twelve ADHD/ODD subjects, week 5
  subjects no longer meeting the screening criteria for ODD: four
[3]; [4]
  subjects with improvement of at least 3 points in Vanderbilt ODD score: Eleven
  subjects with improvement of at least 8 points in Vanderbilt ODD score: 6 subjects
[3]; subjects 111 and 126 on aripiprazole, subject 122 on risperidone, between weeks 1 and 5
  Vanderbilt ODD scores in subjects on anti-psychotic medications: improved

— patent publication US12121514B2, “Nonselective metabotropic glutamate receptor activators for treatment of attention deficit disorder and 22Q syndrome” (THE CHILDREN'S HOSPITAL OF PHILADELPHIA, priority 2015, dated 2024)
